According to patent US5192760A, “3-carbalkoxyamino-5-(alpha-aminopropionyl)-5H-dibenz[b,f]azepines and method for their making” (priority 1989, dated 1993):
Where two headings read alike, the source gives them in different places.

Legend:
[1] = tested on: Aconitine (rat); assay: animal or person; format: in vivo, female Wistar rats; conditions: Rattus norvegicus
Experimental: (§1) ED73 iv. and po. are the dose in mg/kg, body weight which inhibits aconitine in female Wistar rats after iv. or po. administration of the test substance up to the occurrence of isolated ventricular extrasystolae. The procedure is also described by K. Femmer et al., in Pharmazie, vol. 31, page 36 (1976). The test substances are administered 2 minutes before the aconitine if given iv., and 60 minutes before the aconitine if given orally. The data is analyzed by the Probit regression analysis with a confidence interval of p=0.05 (values in parentheses).
(§2) Q1 is the ratio of […]. to determine the absorption, and Q2 is the ratio of LD50 iv. /ED73 iv. to determine the therapeutic breadth.

[2] = in vivo; format: in vivo, female Wistar rats; conditions: in vivo
Experimental: as §1, §2

[3] = in vivo; design: species or system male or female Wistar rats; conditions: Wistar rat, iv. in tail vein, p=0.05 confidence interval in parentheses
Source text: LD50 iv. is the lethal dose in mg/kg body weight for 50% of the experimental animals of an orientating acute toxicity test on male or female Wistar rats of our own breed, iv. administration in the tail vein, 3-4 dosages, 10 animals per group. Data analyzed by the Probit regression analysis with a confidence interval of p=0.05 (values in parentheses).

[4] = ratio of ED73 po. to ED73 iv., rat aconitine, read-out: Q1 (ED73 po. /ED73 iv.), absorption ratio
[5] = ratio of LD50 iv. to ED73 iv., rat, read-out: Q2 (LD50 iv. /ED73 iv.), therapeutic breadth

Structure (SMILES) | ED73 ([1]; iv, read-out: ED73 iv.) [mg/kg] | ED73 ([1]; po, read-out: ED73 p.o.) [mg/kg] | selectivity ratio [2, 4] | selectivity ratio [2, 5] | ED50 ([1]; iv, read-out: ED50 iv. (printed in the ED73 p.o. column)) [mg/kg] | LD50 [3] [mg/kg]
CCOC(=O)Nc1ccc2c(c1)N(C(=O)CN(C)C)c1ccccc1CC2 [Bonnecor, 3carbethoxyamino-5-dimethylaminoacetyl-10,11-dihydro-5H-dibenz[b,f,]azepine, reference compound] | 0.28 | 5.7 | 20 | 39 |  | 
Cc1cccc(C)c1OCC(C)N (stereo not drawn) [Mexiletin, reference compound] | 15 |  |  |  | 91 | 
CCOC(=O)Nc1ccc2c(c1)N(C(=O)CCN1CCOCC1)c1ccccc1S2 [Moracizin, reference compound] | 1.1 | 112 | 102 | 10 |  | 
CCOC(=O)Nc1ccc2c(c1)N(C(=O)C(C)N(C)C)c1ccccc1CC2 (stereo not drawn) [Test No. 1] | 2.4 | 24 | 10 | 8 |  | 20
CCOC(=O)Nc1ccc2c(c1)N(C(=O)C(C)N(CC)CC)c1ccccc1CC2 (stereo not drawn) [Test No. 2] | 1.3 | 11 | 9 | 9 |  | 12
CCOC(=O)Nc1ccc2c(c1)N(C(=O)C(C)N1CCOCC1)c1ccccc1CC2 (stereo not drawn) [Test No. 3] | 47 | > 80 |  | ~2 |  | > 70
CCOC(=O)Nc1ccc2c(c1)N(C(=O)C(C)NC)c1ccccc1CC2 (stereo not drawn) [Test No. 4, 3-Carbethoxyamino-5-(α-methylaminopropionyl)-10,11-dihydro-5H-dibenz[b,f]-azepine] | 0.12 | 19 | 158 | 100 |  | 12
CCNC(C)C(=O)N1c2ccccc2CCc2ccc(NC(=O)OCC)cc21.Cl (stereo not drawn) [Test No. 5, 3-carbethoxyamino-5-(α-ethylaminopropionyl)-10,11-dihydro-5H-dibenz[b,f]azepine hydrochloride] | 0.16 | 7 | 44 | 39 |  | 9.3
CNC(C)C(=O)N1c2ccccc2CCc2ccc(NC(=O)OC(C)C)cc21 (stereo not drawn) [compound 6] | 0.55 | 12 | 22 | 38 |  | 21
CCNC(C)C(=O)N1c2ccccc2CCc2ccc(NC(=O)OC(C)C)cc21 (stereo not drawn) [compound 7] | 0.33 | 20 | 61 | 30 |  | 10
CNC(C)C(=O)N1c2ccccc2CCc2ccc(NC(=O)OC)cc21 (stereo not drawn) [compound 8] | 0.86 | 14 | 16 | 28 |  | 24
COC(=O)Nc1ccc2c(c1)N(C(=O)C(C)NCCO)c1ccccc1CC2 (stereo not drawn) [compound 9] | 4 |  |  | 14 |  | 55
CCOC(=O)Nc1ccc2c(c1)N(C(=O)C(C)NC)c1ccccc1C=C2 (stereo not drawn) [compound 10] | 0.75 | 4.9 | 6.5 | 19 |  | 14
CCNC(C)C(=O)N1c2ccccc2C=Cc2ccc(NC(=O)OCC)cc21 (stereo not drawn) [compound 11] | 0.8 | 14 | 18 | 18 |  | 14
CCCNC(C)C(=O)N1c2ccccc2CCc2ccc(NC(=O)OCC)cc21 (stereo not drawn) [compound 12] | 0.16 | 3.5 | 22 | 16 |  | 2.5
CCOC(=O)Nc1ccc2c(c1)N(C(=O)C(C)N)c1ccccc1CC2 (stereo not drawn) [compound 13] | 0.31 | 14 | 45 | 68 |  | 21
